Measurements from patent US20210087163A1, “PHENOXY THIOPHENE SULFONAMIDES AND OTHER COMPOUNDS FOR USE AS INHIBITORS OF BACTERIAL GLUCURONIDASE” (NORTH CAROLINA CENTRAL UNIVERSITY, priority 2010, published 2021).
“Also recorded” adds a separate entry of the source. Like-named read-outs stand apart in the source and are kept apart here.

Columns and labels:
E. coli cells = assay: microbe, parasite or virus in culture; conditions: Escherichia coli, 2 h
[1] = biological target: endogenous GUS activity in whole E. coli cells (Escherichia coli, UniProt P05804); assay: GUS cell based assay (whole E. coli cells, 4MUG); conditions: for potency shift, less potent in the cell-based assay compared to the enzyme assay: less potent in cells
Protocol: An E. coli cell based assay was developed in order to assess the activity of these drugs against whole cells, instead of purified enzyme. We took advantage of the well-known specificity and sensitivity of the 4MUG substrate to detect GUS activity in E. coli cells. This assay mimicked the enzyme assay in format, with the GUS enzyme replaced by live log-phase E. coli cells and the assay incubated for a longer time (2 hr) to detect GUS activity in these un-modified cells.
Cultures of E col (DH5α) carrying the empty expression vector pCMV5 were grown over night in LB containing carbenicilin (50 μM) and then used to initiate fresh LB/carbenicillin cultures adjusted to an initial OD of 0.1. These cultures were allowed to reach an OD of 0.6 and then washed twice with 50 mM HEPES, pH 7.4 containing carbenicillin 50 μM, and concentrated by centrifugation to an OD of 1 for use in the assay. The GUS cell based assay was performed in an identical manner as the enzyme assay except the Triton X-100 was left out of the assay buffer, the E. coli cells replaced the enzyme and the reaction was allowed to proceed for 2 hrs at 37° C. The resulting data was analyzed as outlined for the enzyme assay.

E. coli GUS = E. coli GUS (Escherichia coli, UniProt P05804); assay: GUS enzyme assay, manual version (purified E. coli GUS, 4MUG); assay type: biochemical
Protocol: The semi-automated GUS high throughput enzyme assay was performed as previously described and was used to screen the Prestwick Chemical Collection. The follow-up studies were performed manually in a similar manner with the exception of plate type and volumes, as briefly outlined here. Compound stock solutions were made in 100% DMSO. […] Final concentrations in the assembled assay were 50 mM HEPES. pH 7.4, 0.01% Triton X-100, 1% DMSO. […] The enzyme reaction was allowed to proceed for 20 minutes at 23° C., and was terminated by the addition of 40 μl of a 1M sodium carbonate solution. […] Fluorescence data, expressed in relative fluorescence units (RFU), were normalized to DMSO (100% activity) and “no enzyme” (0% activity) controls as maximum and minimum responses, respectively. The Bovine taurus GUS enzyme assay was performed in an identical manner except Bovine taurus GUS enzyme (1 nM) was used instead of bacterial GUS. The IC50 values and Hill slopes were calculated from concentration response data using GraphPad Prism software (GraphPad Software Inc., La Jolla, Calif.) employing either four-parameter or a three parameter (fixed bottom) curve fit.

E. coli β-glucuronidase = E. coli β-glucuronidase (Escherichia coli, UniProt P05804); assay: biochemical
[2] = biological target: T1, mammalian GUS purified from Bovine taurus liver (Bos taurus, UniProt A3KMY8); assay: Bovine taurus GUS enzyme assay; assay type: biochemical
T1 sequence (A3KMY8 1-652): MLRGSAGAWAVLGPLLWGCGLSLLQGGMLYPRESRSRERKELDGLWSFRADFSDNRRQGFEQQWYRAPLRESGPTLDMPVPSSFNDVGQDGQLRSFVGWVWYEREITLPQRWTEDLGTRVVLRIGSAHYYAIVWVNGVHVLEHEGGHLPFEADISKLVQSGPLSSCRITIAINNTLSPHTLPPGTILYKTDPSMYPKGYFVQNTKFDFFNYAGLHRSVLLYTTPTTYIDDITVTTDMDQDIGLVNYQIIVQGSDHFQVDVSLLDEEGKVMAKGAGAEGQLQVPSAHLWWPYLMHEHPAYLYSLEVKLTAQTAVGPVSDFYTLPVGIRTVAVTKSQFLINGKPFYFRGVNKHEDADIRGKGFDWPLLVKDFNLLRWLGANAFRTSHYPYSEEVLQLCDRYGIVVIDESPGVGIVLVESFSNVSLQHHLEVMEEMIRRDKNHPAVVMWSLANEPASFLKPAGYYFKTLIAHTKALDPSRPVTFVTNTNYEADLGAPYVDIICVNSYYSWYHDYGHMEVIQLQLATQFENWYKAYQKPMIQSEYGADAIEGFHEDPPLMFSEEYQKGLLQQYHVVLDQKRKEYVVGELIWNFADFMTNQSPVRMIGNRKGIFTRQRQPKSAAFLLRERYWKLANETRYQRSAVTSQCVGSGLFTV

MAO = conditions: read-out: reported IC50 for MAO; depending on subclass of MAO-A or MAO-B, or total activity; cited from earlier work
monoamine oxidase = conditions: read-out: reported in vitro IC50 for inhibiting monoamine oxidase; rat brain homogenates; cited from earlier work
[3] = running text, read-out: IC50 in the E. coli cell-based assay
[4] = running text, read-out: average IC50 in the E. coli GUS enzyme assay

Sequence of endogenous GUS activity in whole E. coli cells (P05804 whole entry): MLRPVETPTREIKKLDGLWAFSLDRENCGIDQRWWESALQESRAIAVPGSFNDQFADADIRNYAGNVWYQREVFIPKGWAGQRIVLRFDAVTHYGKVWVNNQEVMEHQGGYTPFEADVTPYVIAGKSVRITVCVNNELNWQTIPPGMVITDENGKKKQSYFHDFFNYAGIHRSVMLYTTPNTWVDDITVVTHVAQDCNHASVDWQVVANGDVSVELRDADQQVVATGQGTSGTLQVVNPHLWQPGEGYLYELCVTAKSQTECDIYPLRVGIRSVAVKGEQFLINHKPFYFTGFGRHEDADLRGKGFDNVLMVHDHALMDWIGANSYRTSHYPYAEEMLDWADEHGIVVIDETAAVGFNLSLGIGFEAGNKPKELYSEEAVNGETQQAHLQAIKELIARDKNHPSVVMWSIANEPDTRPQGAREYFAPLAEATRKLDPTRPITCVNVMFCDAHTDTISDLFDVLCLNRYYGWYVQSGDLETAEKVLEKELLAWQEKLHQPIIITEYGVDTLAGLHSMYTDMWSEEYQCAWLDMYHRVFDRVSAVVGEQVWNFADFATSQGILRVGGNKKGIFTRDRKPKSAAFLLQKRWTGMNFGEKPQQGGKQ
Sequence of E. coli β-glucuronidase (P05804 whole entry): as above
Sequence of E. coli GUS (P05804 whole entry): as above

For `NC[C@H]1O[C@H](O[C@H]2[C@H](O)[C@@H](O[C@H]3O[C@H](CO)[C@@H](O)[C@H](N)[C@H]3O)[C@H](N)C[C@@H]2N)[C@H](O)[C@@H](O)[C@@H]1O` [Kanamycin], the inhibition at 50 µg/mL (E. coli cells; read-out: reduction of activity in the viability assay) was over 90%.

For `OC(c1cc(C(F)(F)F)nc2c(C(F)(F)F)cccc12)C1CCCCN1` (stereo not drawn) [Mefloquine, mefloquine], the “potency shift, less potent in the cell-based assay compared to the enzyme assay” value (“potency shift, less potent” for short) [1] was “over 4.9 fold”, the “potency shift, less potent” value ([1]; listed as mefloquine) was 5 fold and the IC50 ([1]; read-out: IC50 in the E. coli cell-based assay) was 6000 nM. The IC50 (E. coli GUS; listed as mefloquine hydrochloride, read-out: average IC50 in the E. coli GUS enzyme assay) was 1210 nM and the viability at 10 µM (E. coli cells; read-out: viability of E. coli) was 100%.

With `CC1(C)Cc2cccc(Oc3ccc(S(=O)(=O)NCc4cccc5ccccc45)s3)c2O1` [BRITE-354502] the IC50 (E. coli β-glucuronidase; read-out: IC50, β-Glucuronidase Inhibitory activity of phenoxythiophene sulfonamides) was 965000 nM.

In the case of `Cc1cc(C(=O)NNCc2ccccc2)no1` [Isocarboxazid, isocarboxazid], the IC50 [1, 3] is reported as 336 ± 120 nM, the IC50 (E. coli GUS; average of at least three determinations, read-out: E. coli GUS Enzyme Assay IC50 ± SD) is reported as 128 ± 56 nM and the “activity against purified mammalian GUS, in words” value [2] is reported as “no significant activity; also recorded: do not inhibit”.

In the case of `NNCCc1ccccc1` [Phenelzine, phenelzine], the IC50 ([1]; average of at least three determinations, 2 hrs at 37° C., read-out: E. coli Cell-Based Assay IC50 ± SD) is reported as 7120 nM, the “potency shift, less potent” value [1] is reported as 2.6 fold and the IC50 (E. coli GUS; running text, listed as phenelzine, read-out: average IC50 in the E. coli GUS enzyme assay) is reported as 2280 nM. For the same compound, the IC50 (E. coli GUS; [4]) was 2200 nM, the IC50 (MAO) was 70 to 900 nM and the “inhibition in the Prestwick collection screen” value (E. coli β-glucuronidase; 10 µM) was over 50%. It also gave an inhibition at 10 µM (E. coli β-glucuronidase; read-out: inhibition in the Prestwick collection screen) of 62%.

With `O=C(CCNNC(=O)c1ccncc1)NCc1ccccc1` [Nialamide, nialamide] the “potency shift, more potent in the cell-based assay compared to the E. coli GUS enzyme assay” value ([1]; more potent in cells) was 4 fold, the IC50 [1, 3] was 17 nM and the IC50 (E. coli GUS; [4]) was 71 nM. The “activity against purified mammalian GUS, in words” value [2] was “no significant activity; also recorded: do not inhibit”, the IC50 ([2]; average of at least three determinations, read-out: B. taurus GUS Enzyme Assay IC50 ± SD) was 74800 nM and the IC50 ([2]; running text, read-out: IC50 against purified mammalian GUS) was about 75000 nM. For the same compound, the IC50 (monoamine oxidase) was 2600 to 13000 nM.
